Entries after “also recorded” stand apart in the source; their conditions may differ. Where a SMILES comes first, the peptide text is derived from it. Bridges are numbered along the chain shown (N, C = ends).
Assays:
voltage-gated K channels = assay: Selectivity recording on voltage-gated K channels; assay type: cell-based; conditions: 10 μM RhTx compared to toxin-free treatment
Experimental: (§1) Supplementary Figure 3. […]
(§2) mTRPV2 (c), mTRPV3 (d) and mTRPV4 (e). (f) Treatment with 10 μM RhTx (red traces)

[1] = tested on: voltage-gated Na channels; assay: Selectivity recording on voltage-gated Na channels; assay type: cell-based; conditions: 10 μM RhTx compared to toxin-free treatment
Experimental: as §1, §2

[2] = tested on: mTRPV1 point mutants at D602, Y632, T634 and L461; assay: Calcium imaging of mTRPV1 point mutants; assay type: cell-based, mouse; conditions: glycine or alanine mutation; 10 μM RhTx, 10 μM capsaicin
From the text: TRPV1 and TRPV3 chimeras used in this study were generated by the overlapping extension method[54] and confirmed by DNA sequencing, as described previously. Briefly, to generate V1/3S, the primer pairs (5′-[…]-3′and 5′-[…]-3′) were used. To generate other TRPV1/TRPV3 chimeras, the enzyme cutting sites by MluI were made by the primer pair (5′-[…]-3′ and 5′-[…]-3′) for TRPV1 and the primer pair (5′-[…]-3′ and 5′-[…]-3′) for TRPV3. The enzyme cutting sites by PvuI were made by the primer pair (5′-[…]-3′ and 5′-[…]-3′) for TRPV1 and the primer pair (5′-[…]-3′ and 5′-[…]-3′) for TRPV3. The enzyme cutting sites by BsiWI were made by the primer pair (5′-[…]-3′ and 5′-[…]-3′) for TRPV1 and the primer pair (5′-[…]-3′ and 5′-[…]-3′) for TRPV3. […]
Mouse DRG neurons were acutely dissociated and maintained in a short-term primary culture according to procedures as previous descripted. […] Fluorescence images of DRG neurons and HEK-293T cells were acquired with an Olympus IX81 microscope with Hamamatsu C4742 charge-coupled device camera controlled by the MetaFluor Software (Molecular Devices). Fluo-4 was excited by a mercury vapour light source with a 500/20-nm excitation filter, while fluorescence emission was detected with a 535/30-nm emission filter. Fluorescence images were required with automated routines written in MetaMorph software (Molecular Devices) and analysed with Igor Pro (Wavemetrics).

TRPV1 = assay: RhTx-induced desensitization of TRPV1 heat activation, inside-out patch; assay type: cell-based; conditions: 10 μM RhTx in patch pipette solution, inside-out patches, heating to 55 °C, n=8
From the text: For recording the RhTx-induced desensitization of TRPV1, temperature control was achieved by perfusion of preheated or room-temperature bathing solution. Hot bathing solution were maintained at expected temperature with an SH-27B in-line solution heater controlled by a TC-324C temperature controller (Warner). A solution exchanger RSC-200 with eight separate tubes to deliver room-temperature bathing solution and capsaicin. A TA-29 miniature bead thermistor (Harvard Apparatus) was placed right next to the pipette to ensure accurate monitoring of local temperature.

WT mice [3] = assay: Paw-licking assay, intraplantar injection; assay type: in vivo, mouse; conditions: 1 μmol per paw in 100 μl saline, 40 min observation
Experimental: (§3) In vivo effects of RhTx on WT mice or Trpv1^−/− mice were examined according to protocols described previously. For the paw-licking assay, pain was induced in mice by intraplantar injection of 0.1% formalin, capsaicin (1 μmol per paw) or RhTx (1 μmol per paw). Each of the testing materials was dissolved in 100 μl saline. Control mice received the same volume of saline. Injected mice were placed individually into open polyvinyl cages (20 × 40 × 15 cm). Time spent licking the injected paw was recorded by a digital video camera during the following 40 min. For recording colonic temperature from WT or Trpv1^−/− mice, mice equipped with a copper-constantan thermocouple were individually placed in open polyvinyl cages. A data logger was connected to the thermocouple. Mice were injected intraperitoneally with 100 μl saline containing capsaicin or RhTx. The dose of capsaicin or RhTx was 10 μmol kg^−1 for these experiments. Mice in the control group received the same volume of saline.
Supplementary Figure 1. Centipede crude venom -induced paw licking. Pain behavior was induced in mice b y intraplan tar injection of centipede crude venom. After crude venom injection, mice were immediately placed individually into open polyvinyl cages (20 × 40 × 15 cm). The time spent licking the injected paw was recorded by digital video camera during 0- 10 minutes […]

WT mice [4] = assay: Colonic temperature after intraperitoneal injection; assay type: in vivo, mouse; conditions: WT mice n=6, intraperitoneal, 10 μmol kg^−1
Experimental: as §3

mTRPV1 = molecular target: T1, mTRPV1 (Mus musculus, UniProt Q704Y3); assay: Inside-out patch, toxin applied from the intracellular side; assay type: cell-based; conditions: inside-out patch containing mTRPV1, holding 0 mV, testing +80 mV
T1 construct: expressed in transfected cells; host or cells: HEK-293T
T1 sequence (Q704Y3 whole entry): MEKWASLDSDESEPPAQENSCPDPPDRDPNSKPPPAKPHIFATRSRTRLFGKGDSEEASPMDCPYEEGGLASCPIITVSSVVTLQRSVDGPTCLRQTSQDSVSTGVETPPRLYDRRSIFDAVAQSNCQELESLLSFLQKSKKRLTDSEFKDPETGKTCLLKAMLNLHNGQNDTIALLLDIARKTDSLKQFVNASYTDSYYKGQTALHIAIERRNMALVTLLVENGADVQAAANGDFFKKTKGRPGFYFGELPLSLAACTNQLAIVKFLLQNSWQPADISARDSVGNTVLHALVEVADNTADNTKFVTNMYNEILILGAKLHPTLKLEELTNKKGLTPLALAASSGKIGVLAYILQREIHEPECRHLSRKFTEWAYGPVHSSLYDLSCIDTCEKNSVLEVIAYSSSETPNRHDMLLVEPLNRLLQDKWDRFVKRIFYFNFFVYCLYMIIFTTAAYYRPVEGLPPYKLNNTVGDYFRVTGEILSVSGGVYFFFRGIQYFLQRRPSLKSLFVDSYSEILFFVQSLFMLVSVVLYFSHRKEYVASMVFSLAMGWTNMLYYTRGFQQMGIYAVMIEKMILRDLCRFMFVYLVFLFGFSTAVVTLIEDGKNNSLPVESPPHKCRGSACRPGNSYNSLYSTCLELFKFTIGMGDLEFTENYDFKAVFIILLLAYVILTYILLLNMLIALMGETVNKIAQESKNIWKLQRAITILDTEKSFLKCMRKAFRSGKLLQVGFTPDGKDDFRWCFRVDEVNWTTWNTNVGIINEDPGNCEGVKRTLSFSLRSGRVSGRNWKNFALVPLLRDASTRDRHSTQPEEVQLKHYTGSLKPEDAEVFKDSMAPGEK
Experimental: (§4) As described in details in a previous report, macroscopic currents (in whole-cell, inside-out or outside-out configuration) as well as single-channel currents were recorded using a HEKA EPC10 amplifier with the PatchMaster software (HEKA). Both pipette solution and bath solution contained 130 mM NaCl, 3 mM HEPES and 0.2 mM EDTA (pH 7.2). All recordings were performed at room temperature unless otherwise stated. A holding potential of 0 mV was used from which a testing pulse to +80 mV was applied. Statistical difference was determined using the Student’s t-test, and indicated by ** when reaching the significance level P<0.001.

mTRPV4 = assay: Selectivity recording on mTRPV4; assay type: cell-based, mouse; conditions: RhTx at 10 μM
Experimental: as §4, §1, §2

CC[C@H](C)[C@H](NC(=O)[C@@H]1CSSC[C@@H]2NC(=O)[C@H]([C@@H](C)O)NC(=O)[C@H](C(C)C)NC(=O)CNC(=O)[C@H](CC(N)=O)NC(=O)[C@@H](NC(=O)[C@@H]3CCCN3C(=O)[C@H](CC(N)=O)NC(=O)[C@H](CC(N)=O)NC(=O)[C@@H](N)CC(C)C)CSSC[C@H](NC(=O)[C@H](CCCNC(=N)N)NC(=O)[C@H](Cc3ccc(O)cc3)NC(=O)CNC(=O)[C@H](CO)NC(=O)[C@@H]3CCCN3C2=O)C(=O)N[C@@H](CO)C(=O)N[C@@H]([C@@H](C)CC)C(=O)N[C@@H](C(C)C)C(=O)N[C@@H](CC(=O)O)C(=O)N[C@@H](CCCCN)C(=O)N[C@@H](CCC(N)=O)C(=O)N1)C(=O)N[C@@H](CCCCN)C(=O)N[C@@H](CCCCN)C(=O)N[C@@H](CCC(=O)O)C(=O)O [RhTx] (H-LNNPCNGVTCPSGYRCSIVDKQCIKKE-OH; disulfide 5-16, 10-23; N-terminus and C-terminus assumed)
effect on voltage-gated K channels (voltage-gated K channels): no detectable effect; also recorded: no discernable response
effect on voltage-gated Na channels [1]: no detectable effect; also recorded: no discernable response
agonist-induced intracellular calcium increase in point mutants versus WT channel [2]: markedly reduced
TRPV1 heat response after extended incubation with toxin (TRPV1): selectively desensitized TRPV1 heat activation but not capsaicin activation; also recorded: incapable to respond to heat
pain behaviour (paw licking) (WT mice [3]): elicited similar pain behaviour
core (colonic) temperature (WT mice [4]): rapid drop in core temperature
activity when applied from the intracellular side (mTRPV1): completely ineffective; also recorded: no activity
response of TRPV4 (mTRPV4): no detectable effect; also recorded: no discernable response

Reference: paper PMC4589873, “A pain-inducing centipede toxin targets the heat activation machinery of nociceptor TRPV1” (Nature Communications, 2015)
